These results are taken from patent US20020115659A1, “Compounds having heterocyclic groups containing two nitrogen atoms for treating multidrug resistance” (priority 2000, published 2002).

This test has as its system NIH-MDR1-G185 cells. Nature of the test: Fluorescent substrate accumulation assay (BODIPY-FL Taxol accumulation). In kind it is cell-based. The following applies: MDR modulator 10 micromolar, 15 min preincubation; BODIPY-FL Taxol 500 nM, 40 min at 37° C.; fluorescence in presence/absence of modulator. As for the experimental part: NIH-MDR1-G185 cells (obtained from M. Gottesman, NIH) were harvested and resuspended in RPMI-1640 containing L-glutamine, 10% Cosmic Calf Serum and penicillin-streptomycin. Cell suspension aliquots of 175 microliters (1×10^5 cells) were added to individual wells of a 96 well microtiter plate and preincubated for 15 min at 37° C. with 20 microliter MDR modulator diluted in cell culture media to give a final concentration of 10 micromolar. Control wells received no modulating agent. BODIPY-FL Taxol (Molecular Probes, Eugene, Oreg.) was added to each well in 10 microliter aliquots to give a final concentration of 500 nM and cells were incubated for 40 min at 37° C. Cells were centrifuged at 100× g for 5 min at 4° C. and the cell pellet washed with 200 microliters cold PBS to remove fluorescent medium from wells. Cells were centrifuged once more, media removed, and cells resuspended in 200 microliters cold PBS. Fluorescence accumulation was measured in a fluorescence plate reader fitted with an excitation filter of 485 nm and an emission filter of 538 rn. BODIPY-FL taxol accumulation in the cells was calculated as follows:
Accumulation Index=(fluorescence in NIH-MDR1-G185 cells in the presence of modulator)/(fluorescence in NIH-MDR1-G185 cells in absence of modulator)
Accumulation Index of various compounds prepared above was tested according to the method in Reference Example 3.

Consider `O=C(C(CCCc1ccccc1)CCCc1ccccc1)N1CCCCN(C[C@@H](O)COc2cccc3ncccc23)C1` [Example 5], for which the “Accumulation Index” value came out at 12.

`COc1ccc(S(=O)(=O)N2CCC(=O)N(c3ccccc3)C2C(=O)N2CCN(C(c3ccccc3)c3ccccc3)CC2)cc1OC` (centres unmarked) [Example 12]: the “Accumulation Index” value was determined as 7.
